Experimental data reported in paper PMC9718795, “Caffeic acid N-[3,5-bis(trifluoromethyl)phenyl] amide as a non-steroidal inhibitor for steroid 5α-reductase type 1 using a human keratinocyte cell-based assay and molecular dynamics” (Scientific Reports, 2022).
Read-outs that look alike come from different tables or passages of the source.

Columns and labels:
[1] = target: T1, steroid 5α-reductase type 1 (SRD5A1) (Homo sapiens, UniProt P18405); set-up: method as in PMID 28250347; settings: same HaCaT cell-based assay; read-out: IC50 of SRD5A1 inhibition; cited from earlier work
T1 construct: HaCaTs-produced SRD5A1 smoothly converted testosterone to DHT; endogenous in cells; host or cells: HaCaT human keratinocytes
T1 sequence (P18405 1-259): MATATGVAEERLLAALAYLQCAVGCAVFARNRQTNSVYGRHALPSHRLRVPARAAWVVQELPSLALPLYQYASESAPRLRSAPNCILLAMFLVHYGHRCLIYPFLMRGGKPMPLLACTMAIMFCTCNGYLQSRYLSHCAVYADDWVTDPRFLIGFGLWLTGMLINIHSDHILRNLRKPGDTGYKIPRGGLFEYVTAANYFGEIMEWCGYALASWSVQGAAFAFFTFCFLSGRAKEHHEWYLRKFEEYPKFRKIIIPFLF

HaCaTs-produced SRD5A1 = target: T2, HaCaTs-produced SRD5A1 (Homo sapiens, UniProt P18405); assay: Whole-cell-based kinetic study of HaCaT-produced SRD5A1 with HPTLC; settings: no inhibitor, 12 h
T2 construct: HaCaTs-produced SRD5A1 smoothly converted testosterone to DHT; endogenous in cells; host or cells: HaCaT human keratinocytes
T2 sequence (P18405 1-259): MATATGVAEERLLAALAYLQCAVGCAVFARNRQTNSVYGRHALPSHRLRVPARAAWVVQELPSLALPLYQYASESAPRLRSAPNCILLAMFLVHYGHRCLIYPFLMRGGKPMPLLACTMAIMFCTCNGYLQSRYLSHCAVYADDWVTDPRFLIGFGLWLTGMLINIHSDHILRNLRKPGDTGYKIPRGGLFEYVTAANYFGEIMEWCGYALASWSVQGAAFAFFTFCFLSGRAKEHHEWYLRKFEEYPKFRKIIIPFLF
Method: (§1) The in vitro whole HaCaT cell-based assay for the kinetic inhibition against SRD5A1 included culturing the cells for 48 h, treating the cells with testosterone and compound 4 for 12 h and evaluating the % intensity of DHT and cell viability using HPTLC analysis and MTT assay, respectively. The HaCaT cells were seeded and incubated as same as the method shown in 3.8. For the evaluation of dose-dependent activity of testosterone, the different concentration of testosterone (0 − 50 μM) and DMEM with 0.1% DMSO were added. […] DMEM with 0.1% DMSO was used as negative control. Then, the cells were incubated for 12 h. The collection of cell culture medium, extraction process, sample preparation and HPTLC detection were prepared by the method mentioned above (3.8). The obtaining chromatogram was visualized by CAMAG HPTLC Software vision CATS and analyzed by Image J software. The percentage of DHT intensity was calculated based on the intensity of DHT normalized by the standard of DHT at 100 μM. At the same time, the cell viability of the treated cells was assessed by the MTT assay. Each experiment was repeated in triplicate.

[2] = Cell viability (MTT) run in parallel with the HaCaT-based SRD5A1 inhibitory assay; set-up: species or system human; settings: human
[3] = Cell viability (MTT) in the whole-cell kinetic study; assay type: cell-based; settings: human, HaCaT cells, testosterone 0−50 µM, read-out: Cell viabilities
Method: as §1

[4] = target: T1, steroid 5α-reductase type 1 (SRD5A1); assay: HaCaT cell-based SRD5A1 inhibitory assay with direct DHT detection by HPTLC; settings: HaCaT, read-out: % Inhibition of DHT production ± SD; for inhibition at 20 µM: compound 20 µM, 24 h
HaCaT cells = assay: Cell viability (MTT) run in parallel with the HaCaT-based SRD5A1 inhibitory assay; set-up: species or system human; settings: human, 24 h, 20 µM
[5] = test system: dermal papilla (DP) cells; assay: In vitro cytotoxic MTT assay against DP cells; assay type: cell-based, human; settings: 0.5–50 µM, 24 h
Method: (§2) The cytotoxicity of caffeic acid and its amide derivatives were evaluated with two cell lines, human keratinocyte (HaCaT) and DP cells, using the common cell viability assay with MTT. HaCaT and DP cells were seeded at 1 × 10^4 cell/well in 96-well plates in a complete DMEM medium, incubated overnight, and treated with test compounds at 0–50 µM for 24 h. The stock solutions of all the test compounds were prepared in DMSO. Each compound was serially diluted in DMEM to achieve concentrations at 0.5–50 µM; DMEM was used as the negative control. After 24 h of treatment, the culture medium was removed, and cell viability was determined by adding 100 µL of 0.5 mg/mL MTT at 37 °C in darkness for 3 h. After removing the MTT solution, 100 µL of DMSO was added to each well to dissolve the purple formazan crystals. The absorbance was measured at 570 nm using a microplate reader, and the IC50 value was calculated. Each experiment was performed in triplicates.

[6] = test system: human keratinocyte (HaCaT) cells; assay: In vitro cytotoxic MTT assay against HaCaT cells; assay type: cell-based; settings: 0.5–50 µM, 24 h
Method: as §2

[7] = substrate: C[C@]12CC[C@H]3[C@@H](CCC4=CC(=O)CC[C@@]43C)[C@@H]1CC[C@@H]2O; assay: Whole-cell-based kinetic study of HaCaT-produced SRD5A1 with HPTLC; set-up: species or system human; settings: other: no inhibitor, Michaelis–Menten, 12 h
Method: as §1

[8] = HaCaT cells, compound 20 µM, HaCaT, 24 h, read-out: % Cell viability ± SD

Molecule: CC(C)(O)c1cc2c(o1)C(=O)c1ccccc1C2=O [avicequinone C]
- IC50 [1]: 4.45 ± 0.42 µM

Molecule: C[C@]12CC[C@H]3[C@@H](CCC4=CC(=O)CC[C@@]43C)[C@@H]1CC[C@@H]2O [Testosterone, reference compound]
- Vmax in the absence of inhibitors (HaCaTs-produced SRD5A1): 130.9
- % DHT intensity ± S.D. (HaCaTs-produced SRD5A1; testosterone 1 µM): 15.35 ± 9.10%
- % DHT intensity ± S.D. (HaCaTs-produced SRD5A1; testosterone 5 µM): 43.55 ± 10.80%
- % DHT intensity ± S.D. (HaCaTs-produced SRD5A1; testosterone 10 µM): 65.05 ± 13.06%
- % DHT intensity ± S.D. (HaCaTs-produced SRD5A1; testosterone 25 µM): 103.52 ± 20.66%
- % DHT intensity ± S.D. (HaCaTs-produced SRD5A1; testosterone 50 µM): 105.75 ± 11.30%
- viability at 24 h, 10 µM ([2]; 10 µM testosterone, substrate only, read-out: % Cell viability ± SD): 100%
- viability at 12 h [3]: ~80%
- inhibition at 10 µM [4]: 0%

Molecule: O=C(O)C=Cc1ccc(O)c(O)c1 [Compound 1, 3,4-dihydroxycinnamic acid]
- % Cell viability ± SD (HaCaT cells): 86.38 ± 5.70%
- viability at 24 h, 20 µM ([2]; % Cell viability ± SD): 86%
- Toxicity against DP cells [5]: no toxicity
- Toxicity against HaCaT cells [6]: no toxicity

Molecule: CC(C)(C)NC(=O)C=Cc1ccc(O)c(O)c1 [Compound 3, 3-(3,4-dihydroxyphenyl)-N-(1,1-dimethylethyl)-2-propenamide]
- viability at 24 h, 20 µM [2, 8]: 102 ± 2.09%
- Toxicity against DP cells [5]: no toxicity
- inhibition at 20 µM [4]: 2 ± 2.12%
- Toxicity against HaCaT cells [6]: no toxicity

Molecule: C[C@]12C=CC(=O)N[C@@H]1CC[C@@H]1[C@@H]2CC[C@]2(C)[C@@H](C(=O)Nc3cc(C(F)(F)F)ccc3C(F)(F)F)CC[C@@H]12 [Dutasteride, reference compound]
- viability at 24 h, 2.5 µM ([2]; HaCaT cells, 2.5 µM, positive control, HaCaT, 24 h, read-out: % Cell viability ± SD): 88.14 ± 0.11%
- inhibition at 2.5 µM [4]: 100%

Molecule: O=C(C=Cc1ccc(O)c(O)c1)Nc1ccccc1 [Compound 2, 3-(3,4-dihydroxyphenyl)-N-phenyl-2-propenamide]
- viability at 24 h, 20 µM [2, 8]: 102.9 ± 0.4%
- Toxicity against DP cells [5]: no toxicity
- inhibition at 20 µM [4]: 4.84 ± 2.12%
- Toxicity against HaCaT cells [6]: no toxicity

B1: HaCaTs-produced SRD5A1 (Homo sapiens) (protein)
chain: MATATGVAEERLLAALAYLQCAVGCAVFARNRQTNSVYGRHALPSHRLRVPARAAWVVQELPSLALPLYQYASESAPRLRSAPNCILLAMFLVHYGHRCLIYPFLMRGGKPMPLLACTMAIMFCTCNGYLQSRYLSHCAVYADDWVTDPRFLIGFGLWLTGMLINIHSDHILRNLRKPGDTGYKIPRGGLFEYVTAANYFGEIMEWCGYALASWSVQGAAFAFFTFCFLSGRAKEHHEWYLRKFEEYPKFRKIIIPFLF
notes: HaCaTs-produced SRD5A1 smoothly converted testosterone to DHT; endogenous in cells; host or cells: HaCaT human keratinocytes
- Km [7]: 9.287 µM
